Read-outs that look alike come from different tables or passages of the source.

One may read the IC50 as the concentration that inhibits the measured activity by half.

In assay [1] the test system is A375 malignant melanoma. Briefly: Cell Growth Inhibition Assay (MTS, CellTiter 96 AQueous). It counts as cell-based. The conditions noted are these: Homo sapiens, A-375, A375 cells, 72 hr with compound, MTS readout. The procedure: (§1) The two cell lines used, A375 malignant melanoma and A-549 lung carcinoma, were purchased from American Type Culture Collection. These cells were cultured at 37° C. in a humidified atmosphere of 5% CO2 in Dulbecco's Modified Eagle Medium (DMEM) supplemented with 10% fetal bovine serum (FBS), 0.1% glutamine and 0.1% penicillin-streptomycin. DMEM, FBS, glutamine and penicillin-streptomycin were purchased from Life Technologies (Grand Island, N.Y.).
(§2) Exponentially growing cells were seeded at ˜3000 (50 μl) cells per well in 96-well flat-bottomed microtiter plates and then incubated at 37° C. in a humidified atmosphere of 5% CO2/95% air for 24 hr. An analogue was dissolved in dimethyl sulfoxide to give a concentration of 0.6 mg/ml, which was further diluted with the culture medium containing 10% fetal bovine serum. Nine three-fold dilutions were prepared with the maximum concentration being 1/300 of the original DMSO solution (i.e. 2000 ng/ml). This procedure was repeated for each analogue. Fifty microliters of the obtained dilutions were each transferred into the well of the above described culture plate. The cell culture was then placed back into the incubator at 37° C. under the 5% CO2 atmosphere for 72 hr. Cell proliferation was quantified by using the CellTiter 96 AQueous Assay (Promega). In this assay a mixture solution (20 μl) of MTS [Owen's reagent: 3-(4,5-dimethylthiazol-2-yl)-5-(3-carbomethoxyphenyl)-2-(4-sulfophenyl)-2H-tetrazolium inner salt] and phenazine methosulfate (PMS) was added to each well. The resulting mixtures were further incubated for 2.5 hr. The absorbance was measured with a microplate reader at a test wavelength of 540 nm and a reference wavelength of 655 nm to serve as an index of the number of viable cells. The inhibitory ratio of the test compound was calculated according to the following formula: inhibition ratio (%)=100×(C−T)/C, where T is an absorbance of the well containing a test compound and C is an absorbance of the well containing no test compound. The IC50 was calculated by the least squares method.

Assay [2] deals with A-549 lung carcinoma. The assay is described as above. The conditions noted are these: Homo sapiens, A549 cells, 72 hr with compound, MTS readout. In kind it is cell-based. The procedure: as §1, §2

Consider `COc1c(C)c(OC)c2c(c1O)[C@@H]1[C@@H]3Cc4c(OC)c(C)c(OC)c(O)c4[C@H](CNC(=O)c4ccc5ccccc5n4)N3[C@@H](C#N)[C@H](C2)N1C` [drawing 160 R = H (11), Quinoline-2-carboxylic acid amide derivative], for which the IC50 in assay [1] (Table 1, read-out: IC50, nM A375) came out at 1.3 nM; in assay [2] (Table 1, read-out: IC50, nM A549), 4.4 nM.
Turning to `COc1c(C)c(OC)c2c(c1O)[C@@H]1[C@@H]3Cc4c(OC)c(C)c(OC)c(O)c4[C@H](CNC(=O)OCC4c5ccccc5-c5ccccc54)N3[C@@H](C#N)C(C2)N1C`, the IC50 in assay [1] (Table 2, read-out: IC50 (nM) Cell line A375-Melanoma) is 35 nM; in assay [2] (Table 2, read-out: IC50 (nM) Cell line A549-Lung) it was 176 nM.

Source of the values: patent publication US7122549B2, “Saframycins, analogues and uses thereof” (President and Fellows of Harvard College, priority 2000, dated 2006).
